In patent publication US20240352466A1, “APTAMER-siRNA FUSIONS” (APTERNA LIMITED, priority 2020, published 2024):
In the oligonucleotide strings, read from the 5' end, every base follows the letter of its sugar. An asterisk marks phosphorothioate; unmarked linkages are phosphodiester. Other units and linkages are bracketed, terminal groups are in braces. A string of capitals states the bases alone. m = 2'-O-methyl; f = 2'-fluoro

Columns and labels:
[1] = tested on: CEBPB mRNA; assay: CEBPB mRNA transcripts (qPCR) in BNL-ME mouse cells transfected with naked and ESC siRNAs; assay type: cell-based; details: 1, 5 and 10 nM + L3K, lysed after 48 hrs, vs untreated cells
Description: The activity of naked and ESC siRNAs was investigated in mouse BNL hepatocyte cells.
BNL-ME mouse cells were seeded at a density of approximately 20,000 cells per well. The following siRNAs were tested: (m) siCEBPB (Ambion) (SEQ ID NOs: 11, 51 and 12, 52), (m) siCEBPB (Ambs63860) (ESC) (SEQ ID NOs: 17, 18), (h/m) siCEBPB (SEQ ID NOs: 7 and 8), (h/m) siCEBPB ESC (SEQ ID NOs: 15 and 16), (h) siCEBPB (AP6143-6145) (SEQ ID NOs: 9 and 10), (r) siCEBPB (Hao) (SEQ ID NOs: 13 and 14). Test siRNAs were transfected at concentrations of 1, 5 and 10 nM in the presence of Lipofectamine™ 3000 (L3K). Control treatments (untreated, mock L3K treatment, and siFLUC at 1, 5 and 10 nM) were also performed. The media was changed 24 hours following transfection, and cells lysed after 48 hrs. CEBPB mRNA transcript were quantified through qPCR.

[2] = tested on: pancreatic cancer with liver metastasis; assay: Combination of TfR-siCEBPb with PD-1 inhibitor pembrolizumab in mouse model of pancreatic cancer with liver metastasis; assay type: in vivo
Excerpt: The combinatorial anti-tumour effects of TfR-siCEBPb and PD-1 inhibitor pembrolizumab were investigated in the mouse model of pancreatic cancer with liver metastasis. The TfR-siCEBPb (ESC) and TfR-siFLUC sequences from Example 5 were used in this study.
The treatment groups were as follows:
Fourteen days prior to the first dose, mice underwent tumour challenge. The day prior to, and 21 days following the first dose, mice underwent bioluminescence tumour imaging (BTL).

[3] = tested on: PANC-Luc cells; assay: TfR-siCEBPb in mouse model of pancreatic cancer with liver metastasis; assay type: in vivo; details: NOD/SCID mice, 15 mg/kg subcutaneous; for increase in photon count (BTL) relative to PBS and TfR-Fluc controls: after 3 weeks
Description: The anti-tumour effects of TfR-siCEBPb was investigated in a mouse model of pancreatic cancer with liver metastasis
Treatment group 1 was administered PBS as a negative control. Treatment group 2 was a TfR-siFLUC construct (SEQ ID NO:32, conjugated to SEQ ID NO:1), as described previously. Treatment groups 3 and 4 was administered ESC modified siCEBPb sequences from Example 4 linked to TfR aptamer SEQ ID NO: 40, an ESC-modified version of the TfR aptamer laid out in SEQ ID NO:1, via a disulphide bridge as described previously. Group 3 is treated with a ribonucleic acid comprising the human-mouse cross reactive siCEBPb described previously, whilst Group 4 is treated with a ribonucleic acid comprising a mouse siCEBPb. These ribonucleic acids correspond to TFR-SS-siCEBPb seq 1 (SEQ ID NO: 41+50) and TfR-SS-siCEBPb seq 2 (SEQ ID NO:34 and 47) respectively.
Each group consisted of five 6-week-old NOD/SCID mice. Three additional mice were included for baseline.
Fourteen days prior to the first dose, mice underwent tumour challenge by performing intrahepatic tumor implantation by injecting […] of a monocellular suspension (in PBS) containing 1×10^6 PANC-Luc cells into a region in the middle lobe of the livers of 6-week-old female NOD/SCID. The day prior to the first dose, mice underwent bioluminescence tumour imaging (BTL) and were weighed to set the week 0 baseline.
Doses were administered as a 100 μL injection on injection days as outlined in Table 2.
At day 21 (week 3), BTL and body weight were recorded, and blood samples were taken, along with pathological sections of pancreas, tumour and liver for study and cryopreservation. The schema of the experiments is shown as FIG. 6.

[4] = tested on: CEBPB mRNA; assay: CEBPB mRNA expression in primary mouse hepatocytes exposed to TfR-SS-(h/m) siCEBPb; assay type: cell-based
Excerpt: The human siCEBPbeta sequence was aligned with chromosome 3 of the mouse genome (Accession NC_0344592.1), in which the CEBPbeta gene is located, using Basic Local Alignment Search Tool (BLAST, https://blast.ncbi.nlm.nih.gov). […] To make a human/mouse cross-reactive siRNA, this sequence was substituted in the sense (G to A) and antisense (C to U) strands. The sense and antisense strands of this human/mouse crossreactive (h/m) siCEBPb correspond to SEQ ID NOs: 15 and 16 respectively. TfR-SS-MALATI siRNA was included as an siRNA effector control.
Primary mouse hepatocytes were exposed to TfR-SS-MALATI (100 nM, 500 nM and 1000 nM) or TfR-SS-(h/m) siCEBPb (100 nM, 500 nM and 1000 nM), or were untreated, and the effects on CEBPB mRNA expression determined as outlined previously.

[5] = tested on: p21; assay: qRT-PCR of p21 gene expression in PANC-1, Sup-B15 and CCFR-CEM cell lines; assay type: cell-based, human; details: PANC-1, Sup-B15 and CCFR-CEM cells; 400 nM and 800 nM; normalized to GAPDH
Description: (§1) In order to evaluate the effects of TfR aptamer-small RNAs, experiments were performed in PANC-1, Sup-B15 and CCFR-CEM cell lines.
(§2) The TfR-SS-siCEBPB construct as described in Example 1 was selected for these experiments. A TfR aptamer (SEQ ID NO:1) fused via a disulphide bridge (SS) to siRNA for MALATI (TfR-MALATI siR) was generated as a negative control for siCEBPB activity. The siCEBPB (SEQ ID NO:9) without a TfR aptamer delivery system was also included for comparative purposes.
(§3) Cells were seeded in plates on Day 0, and the first transfection of TfR aptamer-small RNAs was performed on day 1. The second transfection of TfR aptamer-small RNAs was performed on day 2. Sampling was performed on day 3. Total RNA extraction was performed on samples prior to qRT-PCR quantification of GAPDH, CEBPA, CEBPB, and p21 gene expression. Expression was normalized to GAPDH.
(§4) Transfections were performed at 400 nM and 800 nM concentrations.

[6] = tested on: CEBPB; assay: qRT-PCR of CEBPB gene expression in PANC-1, Sup-B15 and CCFR-CEM cell lines; assay type: cell-based, human; details: PANC-1, Sup-B15 and CCFR-CEM cells; 400 nM and 800 nM; normalized to GAPDH
Description: as §1, §2, §3, §4

[7] = tested on: CEBPA; assay: qRT-PCR of CEBPA gene expression in PANC-1, Sup-B15 and CCFR-CEM cell lines; assay type: cell-based, human; details: PANC-1, Sup-B15 and CCFR-CEM cells; 400 nM and 800 nM; normalized to GAPDH
Description: as §1, §2, §3, §4

[8] = tested on: CEBPA mRNA; assay: CEBPA mRNA levels in Panc1 cells after TfR aptamer-saCEBPA constructs, active (L2K) and passive delivery; assay type: cell-based, human; details: for CEBPA mRNA levels: passive delivery
Excerpt: In order to test whether cleavable […] bridge (SS) linkers improved TfR aptamer delivery of small RNA, a series of constructs were made by fusing the 22nt TfR binding aptamer (SEQ ID NO:1) to: i. a CEBPalpha small activating RNA (saCEBPa, SEQ ID NO:24) ii. CEBPbeta small interfering RNA (siCEBPb, SEQ ID NO:9), or iii. siTTR (SEQ ID NO:28).
For the saCEBPa and […] constructs, variants were produced where the aptamer and small RNAs were linked through a disulphide linker (SS).
In order to compare the effects of the SS linker on active and passive delivery, constructs were applied to cells in the presence and absence of transfection agent Lipofectamine™ 2000 (L2K, ThermoFisher Scientific).
The effects of the constructs on CEBPA and B mRNA were measured in Panc1 (human pancreatic cancer cell line) cells. Cells were seeded at a density of approximately 50,000 per well in a 24 well plate, in antibiotic free media with no trypsin (Accutase®). Constructs were applied to cells at 10, 500 or 1000 nM concentration, and mRNA levels measured after incubation for 72 hrs.

(h/m) siCEBPB: human/mouse cross reactive naked CEBPB siRNA (AP6143), SEQ ID NOs: 7 and 8 (chain 1 CUGAGUAAUCACUUAAAGAUU; chain 2 UCUUUAAGUGAUUACUCAGUU; unmodified RNA)
CEBPB mRNA expression [1]: below half that of the untreated cells

TfR-SS-(h/m) siCEBPb ESC seq 2: ESC modified human-mouse cross reactive siCEBPb linked to TfR aptamer SEQ ID NO:40 via a disulphide bridge (SEQ ID NO: 34 and 47) (chain 1 UUUAUUCACAUUUUUGAAUUGA; chain 2 CUGAGUAAUCGCUUAAAGAUU; chain 1: 2'-fluoro at CU, RNA at AG, backbone not given here; chain 2: chemistry not given here; further chemistry not fully specified)
effect on animal weight ([2]; in combination with pembrolizumab): no effect on animal weight | body weight at 3 weeks relative to week 0 [3]: body weight gain | increase in photon count (BTL) relative to PBS and TfR-Fluc controls [3]: lower | effects on IVIS, body weight, tumour volume and weight, seq 2 compared with seq-1 ([3]; week 3): more pronounced | tumour burden relative to controls ([3]; week 3): ability to reduce tumour burden | tumour volume ([3]; week 3): statistically significant lower | tumour weight ([3]; week 3): statistically significant lower

TfR-SS-(h/m) siCEBPb: TfR aptamer linked via SS to human/mouse crossreactive siCEBPb (SEQ ID NOs: 15 and 16) (chain 1 fCmUfGmAfGmUfAfAfUmCfAmCfUmUfAmAfAmGfA*mU*mU; chain 2 mU*fCmU*fUmUfAmAfGmUfGmAmUmUfAmCfUmCfAmG*mU*mU; TfR aptamer attached via disulphide linker, attachment site not given here)
relative CEBPB mRNA expression ([4]; 100 nM): reduced slightly | relative CEBPB mRNA expression ([4]; 500 nM): strongest effect | relative CEBPB mRNA expression ([4]; 1000 nM): more pronounced

TfR-SS-(m) siCEBPb ESC seq 1: ESC modified mouse siCEBPb linked to TfR aptamer SEQ ID NO:40 via a disulphide bridge (SEQ ID NO: 41+50) (chain 1 UUUAUUCACAUUUUUGAAUUGA; chain 2 GCACCCUGCGGAACUUGUUUU; ESC modified; disulphide linker; modified_base 1 OTHER; 2-Prime-fluoro uracil; modified_base 2 OTHER; modified_base 3 OTHER; modified_base 5 OTHER; modified_base 6 OTHER; modified_base 7 OTHER; 2-Prime-fluoro cytosine; modified_base 9 OTHER; modified_base 11 OTHER; modified_base 12 OTHER; 2-P; 2-Prime-fluoro guanine; 2-Prime-O-methyl cytosine; 2-Prime-fluoro adenine; modified_base 4 OTHER; mo)
increase in photon count (BTL) relative to PBS and TfR-Fluc controls [3]: lower | tumour burden relative to controls ([3]; week 3): ability to reduce tumour burden | tumour volume ([3]; week 3): Slightly lower | tumour weight ([3]; week 3): Slightly lower

pembrolizumab: PD-1 inhibitor pembrolizumab [reference compound]
tumour volume compared to PBS-treated controls ([2]; week 3, pembrolizumab 0.25 mg/kg, TfR constructs 10 mg/kg): smaller tumour volumes

siCEBPbeta: human CEBPB siRNA (SEQ ID NOs: 9 and 10) without a TfR aptamer delivery system (chain 1 CUGAGUAAUCGCUUAAAGAUU; chain 2 UCUUUAAGCGAUUACUCAGUU; listed as RNA, chemistry not given here)
p21 gene expression [5]: no statistically significant change | CEBPbeta gene expression [6]: no statistically significant change | C/EBPA gene expression [7]: no statistically significant change

B1: TfR-SS-saCEBPA: TfR aptamer SEQ ID NO:1 linked through a disulphide linker (SS) to saCEBPa (SEQ ID NO:38+49, 39) (nucleic acid)
chain 1: UUUAUUCACAUUUUUGAAUUGA
chain 2: UUUAUUCACAUUUUUGAAUUGA
chain 3: GACCAGUGACAAUGACCGCUU
chain 4: GCGGUCAUUGUCACUGGUCUU
modifications: TfR aptamer attached via disulphide linker, further chemistry not given here
relative expression of CEBPA mRNA ([8]; 10 nM + L2K (active delivery), 72 hrs, vs untreated samples): within 1 standard deviation of untreated samples | CEBPA mRNA levels ([8]; 500 nM and 1000 nM, 72 hrs): lower | CEBPA mRNA levels ([8]; 1000 nM, vs control): within one standard deviation of the control
